{
  "source": "patent US6448006B1",
  "about": "“Methods and compositions for reducing bacterial tolerance to antibacterials disinfectants and organic solvents” (priority 1997, dated 2002)",
  "key": {"[1]": {"conditions": "values in parentheses in column heads; cited from earlier work"}, "[2]": {"system": "E. coli strains bearing mar, soxS or robA plasmids", "type": "cell-based", "from_the_text": "Organic solvent tolerance mediated by the marA, soxS, robA and acrAB loci of E. coli is described in White et al. (J. Bacteriol. 179:6122-6126, 1997)."}},
  "note": "Like-named read-outs stand apart in the source and are kept apart here.",
  "data": [
    {"smiles": "C1CCCCC1", "note": "[cyclohexane]", "values": [
      {"measurement": "log Pow", "setting": "[1]", "result": "cyclohexane (3.4)"},
      {"measurement": "Growth in presence of organic solvent", "setting": "[2]; AG100 (wild-type), no plasmid", "result": "−"},
      {"measurement": "Growth in presence of organic solvent", "setting": "[2]; AG100, plasmid pMAK-TU1", "result": "−"},
      {"measurement": "Growth in presence of organic solvent", "setting": "[2]; AG100, plasmid pMAK-TU1 & TU2", "result": "+ +"},
      {"measurement": "Growth in presence of organic solvent", "setting": "[2]; AG100, plasmid pMAK-TU2", "result": "+ ((+) visible growth(≦100 colonies))"},
      {"measurement": "Growth in presence of organic solvent", "setting": "[2]; AG100, plasmid pSMarAB", "result": "+ ((+) visible growth(≦100 colonies))"},
      {"measurement": "Growth in presence of organic solvent", "setting": "[2]; AG100, plasmid pSRob", "result": "+ +"},
      {"measurement": "Growth in presence of organic solvent", "setting": "[2]; AG100, plasmid pSXS", "result": "+ +"},
      {"measurement": "Growth in presence of organic solvent", "setting": "[2]; AG100-A (ΔacrAB), no plasmid", "result": "−"},
      {"measurement": "Growth in presence of organic solvent", "setting": "[2]; AG100-B (acrR mutant), no plasmid", "result": "+ ((+) visible growth(≦100 colonies))"},
      {"measurement": "Growth in presence of organic solvent", "setting": "[2]; AG100K (marCORAB::kan), no plasmid", "result": "−"},
      {"measurement": "Growth in presence of organic solvent", "setting": "[2]; AG100K, plasmid pMAK-TU1", "result": "−"},
      {"measurement": "Growth in presence of organic solvent", "setting": "[2]; AG100K, plasmid pMAK-TU2", "result": "+ ((+) visible growth(≦100 colonies))"},
      {"measurement": "Growth in presence of organic solvent", "setting": "[2]; AG100K, plasmid pMAK-TUI & TU2", "result": "+ +"},
      {"measurement": "Growth in presence of organic solvent", "setting": "[2]; AG100K, plasmid pSMarAB", "result": "+ ((+) visible growth(≦100 colonies))"},
      {"measurement": "Growth in presence of organic solvent", "setting": "[2]; AG100K, plasmid pSRob", "result": "+ +"},
      {"measurement": "Growth in presence of organic solvent", "setting": "[2]; AG100K, plasmid pSXS", "result": "+ +"},
      {"measurement": "Growth in presence of organic solvent", "setting": "[2]; AG102 (marR mutation), no plasmid", "result": "+ +"},
      {"measurement": "Growth in presence of organic solvent", "setting": "[2]; AG102-A (marRl, ΔacrAB), no plasmid", "result": "−"},
      {"measurement": "Growth in presence of organic solvent", "setting": "[2]; AG102-A, plasmid pSMarAB", "result": "−"},
      {"measurement": "Growth in presence of organic solvent", "setting": "[2]; AG102-A, plasmid pSRob", "result": "−"},
      {"measurement": "Growth in presence of organic solvent", "setting": "[2]; AG102-A, plasmid pSXS", "result": "−"},
      {"measurement": "Growth in presence of organic solvent", "setting": "[2]; DJ901 (ΔsoxRS), no plasmid", "result": "−"},
      {"measurement": "Growth in presence of organic solvent", "setting": "[2]; DJ901, plasmid pMAK-TU1", "result": "−"},
      {"measurement": "Growth in presence of organic solvent", "setting": "[2]; DJ901, plasmid pMAK-TU1 & TU2", "result": "+ +"},
      {"measurement": "Growth in presence of organic solvent", "setting": "[2]; DJ901, plasmid pMAK-TU2", "result": "+ ((+) visible growth(≦100 colonies))"},
      {"measurement": "Growth in presence of organic solvent", "setting": "[2]; DJ901, plasmid pSMarAB", "result": "+ ((+) visible growth(≦100 colonies))"},
      {"measurement": "Growth in presence of organic solvent", "setting": "[2]; DJ901, plasmid pSRob", "result": "+ +"},
      {"measurement": "Growth in presence of organic solvent", "setting": "[2]; DJ901, plasmid pSXS", "result": "+ +"},
      {"measurement": "Growth in presence of organic solvent", "setting": "[2]; GC4468 (wild-type), no plasmid", "result": "−"},
      {"measurement": "Growth in presence of organic solvent", "setting": "[2]; GC4468, plasmid pMAK-TU1", "result": "−"},
      {"measurement": "Growth in presence of organic solvent", "setting": "[2]; GC4468, plasmid pMAK-TU1 & TU2", "result": "+ +"},
      {"measurement": "Growth in presence of organic solvent", "setting": "[2]; GC4468, plasmid pMAK-TU2", "result": "+ ((+) visible growth(≦100 colonies))"},
      {"measurement": "Growth in presence of organic solvent", "setting": "[2]; GC4468, plasmid pSMarAB", "result": "+ ((+) visible growth(≦100 colonies))"},
      {"measurement": "Growth in presence of organic solvent", "setting": "[2]; GC4468, plasmid pSRob", "result": "+ +"},
      {"measurement": "Growth in presence of organic solvent", "setting": "[2]; GC4468, plasmid pSXS", "result": "+ +"},
      {"measurement": "Growth in presence of organic solvent", "setting": "[2]; JHC1069 (cfxB1), no plasmid", "result": "+ +"},
      {"measurement": "Growth in presence of organic solvent", "setting": "[2]; JTG1078 (soxR105), no plasmid", "result": "+ +"},
      {"measurement": "Growth in presence of organic solvent", "setting": "[2]; MCH164 (Δmar), no plasmid", "result": "−"},
      {"measurement": "Growth in presence of organic solvent", "setting": "[2]; MCH164, plasmid pMAK-TU1", "result": "−"},
      {"measurement": "Growth in presence of organic solvent", "setting": "[2]; MCH164, plasmid pMAK-TU1 & TU2", "result": "+ +"},
      {"measurement": "Growth in presence of organic solvent", "setting": "[2]; MCH164, plasmid pMAK-TU2", "result": "−"},
      {"measurement": "Growth in presence of organic solvent", "setting": "[2]; MCH164, plasmid pSMarAB", "result": "−"},
      {"measurement": "Growth in presence of organic solvent", "setting": "[2]; MCH164, plasmid pSRob", "result": "−"},
      {"measurement": "Growth in presence of organic solvent", "setting": "[2]; MCH164, plasmid pSXS", "result": "−"},
      {"measurement": "Growth in presence of organic solvent", "setting": "[2]; RA4468 (robA::kan), no plasmid", "result": "−"},
      {"measurement": "Growth in presence of organic solvent", "setting": "[2]; RA4468, plasmid pMAK-TU1", "result": "−"},
      {"measurement": "Growth in presence of organic solvent", "setting": "[2]; RA4468, plasmid pMAK-TU1 & TU2", "result": "+ +"},
      {"measurement": "Growth in presence of organic solvent", "setting": "[2]; RA4468, plasmid pMAK-TU2", "result": "+ ((+) visible growth(≦100 colonies))"},
      {"measurement": "Growth in presence of organic solvent", "setting": "[2]; RA4468, plasmid pSMarAB", "result": "+ ((+) visible growth(≦100 colonies))"},
      {"measurement": "Growth in presence of organic solvent", "setting": "[2]; RA4468, plasmid pSRob", "result": "+ +"},
      {"measurement": "Growth in presence of organic solvent", "setting": "[2]; RA4468, plasmid pSXS", "result": "+ +"}
    ]}
  ]
}
